Data from the NIST ThermoML archive (doi:10.1016/j.jct.2012.02.007).
Numbers after ± are expanded uncertainties.

Experiments:
[1] = mn = molality of the nth substance listed, in mol/kg; conditions: 101.3 kPa, Liquid; for speed of sound: Sing-around technique in a fixed-path interferometer; for mass density: Vibrating tube method
[2] = osmotic coefficient (dimensionless); mn = molality of the nth substance listed, in mol/kg; conditions: 323.15 K, Liquid, Vapor Pressure Osmometer

CCCCn1cc[n+](C)c1.N#CN=C=[N-] [1-butyl-3-methylimidazolium dicyanamide] + CCCO
speed of sound ([1]; 293.15 K, m1 = 0.0646): 1229.5 ± 0.8 m/s
speed of sound ([1]; 293.15 K, m1 = 0.1004): 1232.4 ± 0.8 m/s
speed of sound ([1]; 293.15 K, m1 = 0.154): 1236.7 ± 0.9 m/s
speed of sound ([1]; 293.15 K, m1 = 0.2041): 1240.4 ± 0.9 m/s
speed of sound ([1]; 293.15 K, m1 = 0.2521): 1243.9 ± 0.9 m/s
speed of sound ([1]; 293.15 K, m1 = 0.5071): 1261.1 ± 0.9 m/s
speed of sound ([1]; 293.15 K, m1 = 0.7606): 1277.2 ± 0.9 m/s
speed of sound ([1]; 293.15 K, m1 = 1.012): 1292.2 ± 1 m/s
speed of sound ([1]; 293.15 K, m1 = 1.263): 1306.2 ± 1 m/s
speed of sound ([1]; 293.15 K, m1 = 1.512): 1319.4 ± 1 m/s
speed of sound ([1]; 293.15 K, m1 = 1.765): 1331.8 ± 1.1 m/s
speed of sound ([1]; 293.15 K, m1 = 2.017): 1343.6 ± 1.1 m/s
speed of sound ([1]; 293.15 K, m1 = 2.52): 1365.8 ± 1.1 m/s
speed of sound ([1]; 293.15 K, m1 = 2.826): 1377.8 ± 1.2 m/s
speed of sound ([1]; 293.15 K, m1 = 3.488): 1401.8 ± 1.3 m/s
mass density ([1]; 293.15 K, m1 = 0.0646): 807.07 ± 0.12 kg/m3
mass density ([1]; 293.15 K, m1 = 0.1004): 808.7 ± 0.12 kg/m3
mass density ([1]; 293.15 K, m1 = 0.154): 811.09 ± 0.12 kg/m3
mass density ([1]; 293.15 K, m1 = 0.2041): 813.27 ± 0.12 kg/m3
mass density ([1]; 293.15 K, m1 = 0.2521): 815.21 ± 0.12 kg/m3
mass density ([1]; 293.15 K, m1 = 0.5071): 825.41 ± 0.12 kg/m3
mass density ([1]; 293.15 K, m1 = 0.7606): 834.72 ± 0.12 kg/m3
mass density ([1]; 293.15 K, m1 = 1.012): 843.22 ± 0.12 kg/m3
mass density ([1]; 293.15 K, m1 = 1.263): 851.11 ± 0.13 kg/m3
mass density ([1]; 293.15 K, m1 = 1.512): 858.43 ± 0.13 kg/m3
mass density ([1]; 293.15 K, m1 = 1.765): 865.25 ± 0.14 kg/m3
mass density ([1]; 293.15 K, m1 = 2.017): 871.65 ± 0.15 kg/m3
mass density ([1]; 293.15 K, m1 = 2.52): 883.38 ± 0.16 kg/m3
mass density ([1]; 293.15 K, m1 = 2.826): 889.83 ± 0.17 kg/m3
mass density ([1]; 293.15 K, m1 = 3.488): 902.23 ± 0.2 kg/m3
speed of sound ([1]; 308.15 K, m1 = 0.0646): 1178.7 ± 0.8 m/s
speed of sound ([1]; 308.15 K, m1 = 0.1004): 1181.7 ± 0.8 m/s
speed of sound ([1]; 308.15 K, m1 = 0.154): 1186.2 ± 0.8 m/s
speed of sound ([1]; 308.15 K, m1 = 0.2041): 1190 ± 0.8 m/s
speed of sound ([1]; 308.15 K, m1 = 0.2521): 1193.4 ± 0.9 m/s
speed of sound ([1]; 308.15 K, m1 = 0.5071): 1211.6 ± 0.9 m/s
speed of sound ([1]; 308.15 K, m1 = 0.7606): 1228.3 ± 0.9 m/s
speed of sound ([1]; 308.15 K, m1 = 1.012): 1243.8 ± 0.9 m/s
speed of sound ([1]; 308.15 K, m1 = 1.263): 1258.2 ± 1 m/s
speed of sound ([1]; 308.15 K, m1 = 1.512): 1271.9 ± 1 m/s
speed of sound ([1]; 308.15 K, m1 = 1.765): 1284.7 ± 1 m/s
speed of sound ([1]; 308.15 K, m1 = 2.017): 1297 ± 1.1 m/s
speed of sound ([1]; 308.15 K, m1 = 2.52): 1319.7 ± 1.1 m/s
speed of sound ([1]; 308.15 K, m1 = 2.826): 1332.3 ± 1.2 m/s
speed of sound ([1]; 308.15 K, m1 = 3.488): 1357.1 ± 1.2 m/s
mass density ([1]; 308.15 K, m1 = 0.0646): 795.05 ± 0.12 kg/m3
mass density ([1]; 308.15 K, m1 = 0.1004): 796.71 ± 0.12 kg/m3
mass density ([1]; 308.15 K, m1 = 0.154): 799.15 ± 0.12 kg/m3
mass density ([1]; 308.15 K, m1 = 0.2041): 801.36 ± 0.12 kg/m3
mass density ([1]; 308.15 K, m1 = 0.2521): 803.31 ± 0.12 kg/m3
mass density ([1]; 308.15 K, m1 = 0.5071): 813.67 ± 0.12 kg/m3
mass density ([1]; 308.15 K, m1 = 0.7606): 823.09 ± 0.12 kg/m3
mass density ([1]; 308.15 K, m1 = 1.012): 831.69 ± 0.13 kg/m3
mass density ([1]; 308.15 K, m1 = 1.263): 839.67 ± 0.13 kg/m3
mass density ([1]; 308.15 K, m1 = 1.512): 847.07 ± 0.14 kg/m3
mass density ([1]; 308.15 K, m1 = 1.765): 853.97 ± 0.14 kg/m3
mass density ([1]; 308.15 K, m1 = 2.017): 860.45 ± 0.15 kg/m3
mass density ([1]; 308.15 K, m1 = 2.52): 872.29 ± 0.17 kg/m3
mass density ([1]; 308.15 K, m1 = 2.826): 878.84 ± 0.18 kg/m3
mass density ([1]; 308.15 K, m1 = 3.488): 891.37 ± 0.2 kg/m3
speed of sound ([1]; 323.15 K, m1 = 0.0646): 1128.5 ± 0.8 m/s
speed of sound ([1]; 323.15 K, m1 = 0.1004): 1131.7 ± 0.8 m/s
speed of sound ([1]; 323.15 K, m1 = 0.154): 1136.4 ± 0.8 m/s
speed of sound ([1]; 323.15 K, m1 = 0.2041): 1140.4 ± 0.8 m/s
speed of sound ([1]; 323.15 K, m1 = 0.2521): 1143.8 ± 0.8 m/s
speed of sound ([1]; 323.15 K, m1 = 0.5071): 1162.8 ± 0.9 m/s
speed of sound ([1]; 323.15 K, m1 = 0.7606): 1180.1 ± 0.9 m/s
speed of sound ([1]; 323.15 K, m1 = 1.012): 1196.2 ± 0.9 m/s
speed of sound ([1]; 323.15 K, m1 = 1.263): 1211.2 ± 1 m/s
speed of sound ([1]; 323.15 K, m1 = 1.512): 1225.3 ± 1 m/s
speed of sound ([1]; 323.15 K, m1 = 1.765): 1238.6 ± 1 m/s
speed of sound ([1]; 323.15 K, m1 = 2.017): 1251.3 ± 1.1 m/s
speed of sound ([1]; 323.15 K, m1 = 2.52): 1274.6 ± 1.1 m/s
speed of sound ([1]; 323.15 K, m1 = 2.826): 1287.8 ± 1.2 m/s
speed of sound ([1]; 323.15 K, m1 = 3.488): 1313.3 ± 1.2 m/s
mass density ([1]; 323.15 K, m1 = 0.0646): 782.64 ± 0.12 kg/m3
mass density ([1]; 323.15 K, m1 = 0.1004): 784.35 ± 0.12 kg/m3
mass density ([1]; 323.15 K, m1 = 0.154): 786.83 ± 0.12 kg/m3
mass density ([1]; 323.15 K, m1 = 0.2041): 789.09 ± 0.12 kg/m3
mass density ([1]; 323.15 K, m1 = 0.2521): 791.08 ± 0.12 kg/m3
mass density ([1]; 323.15 K, m1 = 0.5071): 801.63 ± 0.13 kg/m3
mass density ([1]; 323.15 K, m1 = 0.7606): 811.21 ± 0.13 kg/m3
mass density ([1]; 323.15 K, m1 = 1.012): 819.94 ± 0.13 kg/m3
mass density ([1]; 323.15 K, m1 = 1.263): 828.03 ± 0.13 kg/m3
mass density ([1]; 323.15 K, m1 = 1.512): 835.54 ± 0.14 kg/m3
mass density ([1]; 323.15 K, m1 = 1.765): 842.54 ± 0.15 kg/m3
mass density ([1]; 323.15 K, m1 = 2.017): 849.11 ± 0.15 kg/m3
mass density ([1]; 323.15 K, m1 = 2.52): 861.11 ± 0.17 kg/m3
mass density ([1]; 323.15 K, m1 = 2.826): 867.75 ± 0.18 kg/m3
mass density ([1]; 323.15 K, m1 = 3.488): 880.45 ± 0.2 kg/m3
osmotic coefficient ([2]; m1 = 0.0543): 0.973 ± 0.012
osmotic coefficient ([2]; m1 = 0.0899): 0.898 ± 0.013
osmotic coefficient ([2]; m1 = 0.1032): 0.871 ± 0.013
osmotic coefficient ([2]; m1 = 0.2057): 0.816 ± 0.014
osmotic coefficient ([2]; m1 = 0.3018): 0.78 ± 0.014
osmotic coefficient ([2]; m1 = 0.4097): 0.748 ± 0.015
osmotic coefficient ([2]; m1 = 0.5035): 0.737 ± 0.015
osmotic coefficient ([2]; m1 = 0.8276): 0.714 ± 0.016
osmotic coefficient ([2]; m1 = 1.24): 0.691 ± 0.016
osmotic coefficient ([2]; m1 = 1.64): 0.668 ± 0.017
osmotic coefficient ([2]; m1 = 2.049): 0.646 ± 0.017
osmotic coefficient ([2]; m1 = 2.45): 0.634 ± 0.018
osmotic coefficient ([2]; m1 = 2.837): 0.616 ± 0.018
osmotic coefficient ([2]; m1 = 3.324): 0.599 ± 0.019
